From patent publication US8158389B2, “Products and methods for in vivo secretion of monatin” (priority 2005, dated 2012)
Values joined by “and” are separate entries in the source; they are usually repeats but may differ in a detail not shown here. Equal entries are not always repeated.

Target: T1, AcrAB efflux system (Escherichia coli, UniProt P31224)
T1 construct: endogenous in cells; host or cells: E. coli BL21 (DE3) carrying aspC/proA on pET32
Experiment: Monatin efflux per dry cell weight after induction of the AcrAB efflux pump with sodium decanoate
Type: cell-based
Method: The microbial strain used for the experiment was E. coli BL21 (DE3) : : aspC/proA/pET32 (WO 03091396). The symbol : :, as is known in the art, stands for “transformed.” Example 12 provides a non-limiting exemplary method for transforming a microorganism. For an inoculum, the E. coli strains were grown overnight at 37° C. and 250 rpm in Luria-Bertani (“LB”) medium with 100 μg/mL ampicillin. For the experimental treatments, Trp-1+ glucose medium, a minimal medium that has been used for increased production of tryptophan in E. coli cells (Zeman et al. Folia Microbiol. 35:200-204, (1990)), was prepared as follows. To 800 mL nanopure water the following reagents were added: 2 g (NH4)2SO4 and 13.6 g KH2PO4. The pH was adjusted to 7.0, the volume was increased to 948 mL, and the medium was autoclaved. Following sterilization, 0.2 g MgSO4.7H2O, 0.01 g CaCl2.2H2O, and 0.5 mg FeSO4.7H2O were added to the medium in a 1.8 mL volume followed by addition of 0.2 mL of Neidhardt's micronutrient solution. Neidhardt, F. C., et al., “Culture medium for Enterobacteria,” J. Bacteriol. 119:736-746 (1974). Neidhardt's medium includes (per liter): 0.18 g (NH4)6(MO7)24.4H2O, 1.24 g H3BO3, 0.36 g CoCl2.6H2O, 0.12 g CuSO4 (anhydrous), 0.8 g MnCl2.4H2O, and 0.14 g ZnSO4.7H2O. A 50% glucose solution was prepared separately and sterile-filtered. Forty mL of glucose solution and 10 mL of 1 M 3-Morpholinopropanesulfonic acid (“MOPS”) buffer were added to the base medium (950 mL) for a 1 L final volume. […] Flasks were incubated at 37° C. with agitation at 250 rpm up to induction. […] 0.5 mM pyridoxine hydrochloride, and 0.2 mL of Balch's vitamins (Balch, W. E., et al., “Methanogens: reevaluation of a unique biological group,” Microbiol. Rev. 43:260-296, (1979)) were added at induction and the incubation temperature was lowered to 30° C. following induction. […] Some treatments included 2.5 mM sodium decanoate addition at 3.5 hours following induction. Samples for monatin analysis and dry cell weight determination were taken at 24 and 30 hours. Monatin analysis was done as described in Example 13.
Analyses of mixtures for monatin and tryptophan derived from in vitro or in vivo biochemical reactions were performed using a Waters/Micromass liquid chromatography-tandem mass spectrometry (“LC/MS/MS”) instrument including a Waters 2795 liquid chromatograph with a Waters 996 Photo-Diode Array (PDA) absorbance monitor placed in series between the chromatograph and a Micromass Quattro Ultima triple quadrupole mass spectrometer. LC separations were made using an Xterra MS C8 reversed-phase chromatography column, 2.1 mm×250 mm at 40° C. The LC mobile phase consisted of A) water containing 0.05% (v/v) trifluoroacetic acid and B) methanol containing 0.05% (v/v) trifluoroacetic acid.
The gradient elution was linear from 5% B to 35% B, 0-4 min, linear from 35% B to 60% B, 4-6.5 min, linear from 60% B to 90% B, 6.5-7 min, isocratic at 90% B 7-11 min, linear from 90% B to 95% B, 11-12 min, linear from 95% B to 5% B, 12-13 min, with a 5 min re-equilibration period between runs. The flow rate was 0.25 mL/min, and PDA absorbance was monitored from 200 nm to 400 nm. All parameters of the ESI-MS were optimized and selected based on generation of protonated molecular ions ([M+H]^+) of the analytes of interest, and production of characteristic fragment ions. […]

[1] = 2.5 mM Na decanoate, E. coli BL21 (DE3)::aspC/proA/pET32, single flasks

T1 sequence (P31224 whole entry): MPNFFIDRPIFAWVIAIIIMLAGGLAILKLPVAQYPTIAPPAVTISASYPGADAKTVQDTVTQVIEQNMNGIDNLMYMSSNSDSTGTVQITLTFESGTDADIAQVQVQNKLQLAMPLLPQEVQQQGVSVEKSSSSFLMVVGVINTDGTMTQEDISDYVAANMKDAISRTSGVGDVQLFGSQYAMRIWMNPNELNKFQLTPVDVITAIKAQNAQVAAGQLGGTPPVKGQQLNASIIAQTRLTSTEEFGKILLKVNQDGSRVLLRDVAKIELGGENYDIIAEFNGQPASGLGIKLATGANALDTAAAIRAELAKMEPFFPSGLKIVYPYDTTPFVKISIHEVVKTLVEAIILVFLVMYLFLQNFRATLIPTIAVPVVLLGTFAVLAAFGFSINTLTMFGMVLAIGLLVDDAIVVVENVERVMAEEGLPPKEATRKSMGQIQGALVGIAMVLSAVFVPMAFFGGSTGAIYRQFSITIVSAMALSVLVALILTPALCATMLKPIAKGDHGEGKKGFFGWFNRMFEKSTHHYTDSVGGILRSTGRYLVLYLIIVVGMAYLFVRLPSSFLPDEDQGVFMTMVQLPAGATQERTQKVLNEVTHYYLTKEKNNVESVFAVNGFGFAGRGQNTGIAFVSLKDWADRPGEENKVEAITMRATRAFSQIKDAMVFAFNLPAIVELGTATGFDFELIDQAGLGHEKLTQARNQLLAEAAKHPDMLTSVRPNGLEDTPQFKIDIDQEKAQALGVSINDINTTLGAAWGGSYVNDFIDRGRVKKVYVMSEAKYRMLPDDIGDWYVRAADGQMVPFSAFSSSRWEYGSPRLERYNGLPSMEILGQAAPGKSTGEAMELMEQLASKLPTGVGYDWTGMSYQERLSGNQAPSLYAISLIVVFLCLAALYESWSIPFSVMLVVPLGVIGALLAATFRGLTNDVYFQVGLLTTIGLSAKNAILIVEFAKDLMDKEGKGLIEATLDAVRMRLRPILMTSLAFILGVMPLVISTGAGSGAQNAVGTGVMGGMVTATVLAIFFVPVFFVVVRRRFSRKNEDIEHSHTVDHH
T1 sequence (P02930 23-493, further chain): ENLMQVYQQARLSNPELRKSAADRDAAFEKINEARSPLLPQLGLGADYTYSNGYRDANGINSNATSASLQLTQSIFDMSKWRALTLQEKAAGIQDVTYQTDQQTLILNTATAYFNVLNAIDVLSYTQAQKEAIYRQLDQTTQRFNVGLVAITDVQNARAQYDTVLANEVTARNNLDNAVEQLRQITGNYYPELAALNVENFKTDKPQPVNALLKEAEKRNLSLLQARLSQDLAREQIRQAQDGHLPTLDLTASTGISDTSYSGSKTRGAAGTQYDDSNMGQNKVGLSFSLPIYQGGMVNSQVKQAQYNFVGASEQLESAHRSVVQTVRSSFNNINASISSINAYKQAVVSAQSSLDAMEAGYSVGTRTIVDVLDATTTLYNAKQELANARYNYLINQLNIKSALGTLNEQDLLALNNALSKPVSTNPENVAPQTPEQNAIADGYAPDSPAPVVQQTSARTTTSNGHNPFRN
T1 sequence (P0AE06 25-397, further chain): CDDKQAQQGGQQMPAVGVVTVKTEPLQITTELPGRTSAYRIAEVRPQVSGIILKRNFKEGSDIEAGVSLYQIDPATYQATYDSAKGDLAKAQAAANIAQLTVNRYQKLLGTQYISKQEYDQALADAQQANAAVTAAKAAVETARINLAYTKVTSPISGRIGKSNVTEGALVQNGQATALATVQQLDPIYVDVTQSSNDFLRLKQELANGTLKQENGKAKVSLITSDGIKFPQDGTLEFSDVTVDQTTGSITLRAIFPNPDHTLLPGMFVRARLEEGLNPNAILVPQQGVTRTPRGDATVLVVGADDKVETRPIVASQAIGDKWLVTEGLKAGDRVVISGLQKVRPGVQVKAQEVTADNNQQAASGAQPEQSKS

CCCCCCCCCC(=O)[O-].[Na+] [sodium decanoate]
Monatin/dcw at run hour 24 [1]: 14.7 mg monatin/g dcw and 12.0 mg monatin/g dcw and 17.0 mg monatin/g dcw
Monatin/dcw at run hour 30 [1]: 14.3 mg monatin/g dcw and 13.8 mg monatin/g dcw and 17.4 mg monatin/g dcw
Average monatin/dcw at run hour 24 (2.5 mM Na decanoate, n = 3): 14.6 mg monatin/g dcw
Average monatin/dcw at run hour 30 (2.5 mM Na decanoate, n = 3): 15.2 mg monatin/g dcw
increase in monatin secreted/dry cell weight (2.5 mM sodium decanoate vs no decanoate): Greater than nine fold increase
